Assay results taken from US12458630B2, “Combination therapy for cancer” (The Regents of the University of California, priority 2020, dated 2025).
Entries after “also recorded” stand apart in the source; their conditions may differ.

Assays:
MIA PaCa-2 cells = assay: TMR-DEX macropinosome uptake assay; assay type: cell-based, human
Protocol: Cell imaging. Immunostaining was performed as described^44. Cells were cultured on coverslips and fixed in 4% PFA for 10 min at room temperature. After washing twice in PBS, cells were incubated in PBS containing 10% FBS to block nonspecific sites of antibody adsorption. The cells were then incubated with the appropriate primary antibodies (diluted 1:100) and secondary antibodies (diluted 1:500) in PBS containing 10% FBS with or without 0.1% saponin. For cell macropinosome visualization, 24 hrs after seeding, the cells were serum starved for 18 hrs. Macropinosomes were marked using a high-molecular-mass (70 KD) TMR-Dextran (Invitrogen)-uptake assay, wherein TMR-DEX was added to serum-free medium at a final concentration of 1 mg/ml for 30 min at 37° C. At the end of the incubation period, the cells were rinsed five times in cold PBS and immediately fixed in 4% PFA. For tissue macropinosome visualization^45, fresh pancreata were cut into pieces with an approximate 5-mm cuboidal shape. A tissue section was placed in a 24-well plate and injected 150 μL of 10 mg/ml TMR-DEX solution directly into the tissue piece. Another 250 μL of diluted TMR-DEX solution were added to the well to immerse the tissue section. The plate was incubated in the dark for 15 min at room temperature. Then the tissue section was rinsed twice in PBS before embedding in O.C.T. compound in a prelabeled cryomold. Specimens were frozen on dry ice and stored at −80° C. for further processing. Immunostaining was performed as described above. Images were captured using a TCS SPE Leica confocal microscope (Leica, Germany).
In some embodiments, Immunostaining was performed as described (Su et al., 2017). Cells were cultured on coverslips and fixed in 4% PFA for 10 min at room temperature or methanol for 10 min at −20° C. After washing twice in PBS, cells were incubated in PBS containing 10% FBS to block nonspecific sites of antibody adsorption. The cells were then incubated with the appropriate primary antibodies (diluted 1:100) and secondary antibodies (diluted 1:500) in PBS containing 10% FBS with or without 0.1% saponin. For cell macropinosome visualization, 24 hrs after seeding, the cells were serum starved for 18 hrs. Macropinosomes were marked using a high-molecular-mass (70 KDa) TMR-DEX (Invitrogen)-uptake assay, wherein TMR-DEX was added to serum-free medium at a final concentration of 1 mg/ml for 30 min at 37° C. At the end of the incubation period, the cells were rinsed five times in cold PBS and immediately fixed in 4% PFA. For tissue macropinosome visualization (Lee et al., 2019), fresh pancreata were cut into pieces with an approximate 5-mm cuboidal shape. Tissue fragments were placed in a 24-well plate and injected with 150 μL of 10 mg/ml TMR-DEX solution. Another 250 μL of diluted TMR-DEX solution were added to the well to immerse the tissue fragment. The plate was incubated in the dark for 15 min at room temperature. Then the tissue fragments were rinsed twice in PBS before embedding in O.C.T. compound in a prelabeled cryomold. Specimens were frozen on dry ice and stored at −80° C. for further processing. Immunostaining was performed as described above. Images were captured using a TCS SPE Leica confocal microscope (Leica, Germany).
Quantification and statistics. To quantify the number of LC3 puncta, a total of 30 cells were recorded and analyzed using the LAS X measurement program on the TCS SPE Leica. Macropinosomes were quantified by using the ‘Analyze Particles’ feature in ImageJ (National Institutes of Health). Macropinocytic uptake index was computed by determining the total macropinosome area in relation to the total cell area for each field and then by determining the average across all the fields (at least 6 fields). These measurements were done on randomly-selected fields of view. Two-tailed unpaired Student's t test was performed for statistical analysis using GraphPad Prism software. […]

KC6141 cells = assay: Luminescence ATP detection assay; assay type: cell-based, mouse; settings: 0.5 mM glucose, 24 hrs; for cellular ATP: KC6141 cells on ECM, EIPA 10.5 μM, MBQ-167 500 nM, MRT68921 600 nM
Protocol: Extracellular Matrix (ECM) Preparation. Skin fibroblasts were seeded on 6/12/96-well plates. One day after plating, cells were switched into DMEM (with pyruvate) with 10% dialysed FBS supplemented with or without 500 μM ^3H-proline and 100 μM Vitamin C. Cells were cultured for 6 days with media renewal every 24 h. After six days, skin fibroblasts were removed by washing in 1 ml or 500 μl or 100 μl per well PBS with 0.5% (v/v) Triton X-100 and 20 mM NH4OH. ECM was washed five times with PBS before plating KC6141 cells. The following day, KC6141 cells were switched into the indicated medium for 24 or 72 hrs.
Luminescence ATP Detection Assay. Intracellular ATP level was determined with luminescence ATP detection assay system (PerkinElmer) according to manufacturer's protocol. Briefly, KC6141 cells were grown on 96-well plates coated with or without ECM in the presence of 100 μl 0.5 mM glucose medium with or without EIPA (10.5 μM), MBQ-167 (500 nM), MRT68921 (600 nM) or their combinations for 24 hrs. 50 μl mammalian cell lysis solution was added and shaken for 5 minutes. Next, 50 μl substrate solution was added and shaken for five minutes. Finally, plate was adapted in dark for 10 minutes and luminescence was measured.

SMILES	relative macropinocytic uptake (macropinosomes) (MIA PaCa-2 cells; MIA PaCa-2 cells +/- MRT68921)	cellular ATP (KC6141 cells)	macropinosome formation (TMR-DEX labeling) (MIA PaCa-2 cells; parental and IKKα-KO (IKKα^Δ) MIA PaCa-2 cells, 75 μM EIPA)	cellular ATP in p62/NRF2 ablated cells (KC6141 cells; p62 KD or Nrf2 KD KC6141 cells on ECM)
CN1CCc2cc(Nc3ncc(C4CC4)c(NCCCNC(=O)C4CCC4)n3)ccc2C1 [MRT68921]	more macropinosomes; also recorded: increased macropinosomes; also recorded: enhanced	further elevated		
CCN(c1nc(N)c(C(=O)N=C(N)N)nc1Cl)C(C)C [EIPA, 5-(N-ethyl-N-isopropyl) amiloride]		reduced	blocks macropinosome formation; also recorded: inhibited; also recorded: suppressed	ineffective
